Patent publication US20130150434A1 (SOMAXON PHARMACEUTICALS, INC., priority 2006, published 2013)

Columns and labels:
[1] = system: chronic primary insomnia patients with sleep maintenance difficulties; test: Phase III study of doxepin, 8-hour PSG efficacy variables (WASO, TST, SE, LPS); conditions: ITT
Excerpt: Patients with at least a 3-month history of primary insomnia, according to Diagnostic and Statistical Manual of Mental Disorders, Fourth Edition Text Revision (DSM-IV-TR)-defined primary insomnia were enrolled.
Patients were screened (Visit 1) to determine study eligibility and asked to discontinue any protocol-disallowed prescription or over-the-counter (OTC) medications used as sleep medication. At the beginning of the first week (polysomnography [PSG] Screening, Visit 2), eligible patients began two weeks of single-blind placebo dosing and had two consecutive nights of 8-hour PSG recording in the sleep center. Patients were required to meet the PSG screening criteria to remain eligible for the study. Patients were allowed to leave the sleep center during the day after the PSG Screening nights and continued to take single-blind placebo after PSG Screening (Visit 2) for five consecutive nights at home.
Patients were allowed to leave the sleep center during the day after the PSG nights and continued taking single-blind placebo for five consecutive nights at home.
After the PSG Screening and Baseline periods, patients began a 35-day double-blind treatment period during which they were given study drug supplies at each scheduled visit (Visits 4, 5, and 6). The scheduled study visits consisted of two consecutive nights of 8-hour PSG recording in the sleep center and next day assessments to assess sedative efficacy. Patients were asked to complete hangover/residual effects assessments, morning and evening questionnaires, and the Benzodiazepine Withdrawal Symptom Questionnaire (BWSQ) at each of these visits.
Primary Efficacy: The primary efficacy variable was wake after sleep onset (WASO) obtained on Night 1 as determined by PSG recordings using the ITT analysis set.
Additional PSG efficacy variables: Additional efficacy variables obtained on the first PSG assessment nights (Nights 1 and 29) included WASO (Night 29), wake time during sleep (WTDS), total sleep time (TST), sleep efficiency (SE), including whole night, third of the night, and by hour, and latency to persistent sleep (LPS), latency to Stage 2 sleep, number of awakenings after sleep onset (NAASO), total wake time (TWT), wake time after sleep (WTAS), and, sleep architecture including percentage and minutes of Stage 1, 2, and 3/4 non-rapid eye movement (NREM) sleep, percentage and minutes of rapid eye movement (REM) sleep, and latency to REM sleep.
Methods used to analyze other endpoints were the same as those used to analyze WASO. For LPS, latency to REM sleep, latency to Stage 2 sleep, and LSO, data were expected to be log-normally distributed and were analyzed using log-transformed values (base 10). The safety data were analyzed primarily using descriptive statistical methods.
All efficacy analyses were performed on the Intent-to-treat (ITT) analysis set. […] Data were analyzed as randomized and based on observed cases.

[2] = system: chronic primary insomnia patients with sleep maintenance difficulties; test: Phase III study of doxepin, rebound insomnia by PSG during the 2-day discontinuation period; assay type: in vivo, human; conditions: for WASO (rebound insomnia analysis), Median: Baseline = worst WASO value of Nights −6 and −5; for WASO (rebound insomnia analysis), Mean (SD): Baseline = worst WASO value of Nights −6 and −5 from Visit 3; for WASO, Change from Baseline to Visit 7, Night 36, Median / WASO, Change from Baseline to Visit 7, Night 37, Median / WASO, Change from Baseline to Visit 7, Night 36, Mean (SD) / WASO, Change from Baseline to Visit 7, Night 37, Mean (SD): discontinuation
Excerpt: The term “rebound insomnia” refers to the common occurrence that a person may have more trouble sleeping the first few nights after a sedative medicine is stopped than before starting the medicine. After more than a few days' use, discontinuing a hypnotic or sedative medication can make the original sleep problem worse and can cause an increase anxiety. Rebound insomnia may be measured as the mean change in mean wake time after sleep onset (WASO) from baseline to the first night of discontinuation.
Patients were discharged from the sleep center after all final study-related procedures had been completed on the Final Study Day (Day 38, Early Termination [ET]).
Safety: Safety was assessed based on AEs, clinical laboratory tests (hematology, serum chemistry, and urinalysis), vital signs, physical examinations, neurological assessments, 12-lead ECGs, and ratings of hangover/residual effects (digit-symbol substitution test (DSST), symbol copying test (SCT), and the visual analog scale (VAS) for sleepiness), assessment of rebound insomnia using PSG recordings during the discontinuation period, and withdrawal symptoms using the benzodiazepine withdrawal symptom questionnaire (BWSQ).

[3] = doxepin 6 mg, Night 1, p<0.0001 vs placebo
[4] = doxepin 6 mg, Night 15, p 0.0157 vs placebo
[5] = doxepin 6 mg, Night 29, p 0.0003 vs placebo
[6] = Doxepin HCl 3 mg group, Night 36, N = 67 evaluable
[7] = Doxepin HCl 3 mg group, Night 36 and Night 37, N = 67 evaluable
[8] = Doxepin HCl 3 mg group, Visit 7, Night 37 (discontinuation)
[9] = Doxepin HCl 6 mg group, Night 36, N = 68 evaluable
[10] = Doxepin HCl 6 mg group, Night 36 and Night 37, N = 68 evaluable
[11] = Doxepin HCl 6 mg group, Visit 7, Night 37 (discontinuation)

## CN(C)CCC=C1c2ccccc2COc2ccccc21 [Doxepin, 11-(3-dimethylaminopropylidene)-6,11-dihydrodibenzo (b,e)oxepin]
[1]; doxepin 6 mg group, Baseline (single-blind placebo)
  8-hour WASO, Mean (SD): 65.0 (33.23) minutes
[1]; doxepin 6 mg group, Baseline
  LPS (latency to persistent sleep, PSG), Mean (SD): 39.1 (34.10) minutes
  SE - Hour 8 (PSG), Mean (SD): 76.4 (21.26) %
  TST (8-hour PSG), Mean (SD): 380.3 (43.09) minutes
[1]; doxepin 6 mg, Night 1 (primary), p<0.0001 vs placebo
  8-hour WASO, Mean (SD): 36.3 (26.14) minutes
[1]; [3]
  SE (8-hour PSG), Mean (SD): 87.6 (7.72) %
  SE - Hour 8 (PSG), Mean (SD): 88.4 (14.25) %
  TST (8-hour PSG), Mean (SD): 420.5 (37.07) minutes
[1]; doxepin 6 mg, Night 15, p 0.0023 vs placebo
  8-hour WASO, Mean (SD): 41.9 (29.67) minutes
[1]; [4]
  SE (8-hour PSG), Mean (SD): 85.7 (10.70) %
  TST (8-hour PSG), Mean (SD): 411.3 (51.34) minutes
[1]; doxepin 6 mg, Night 15, p 0.8315 vs placebo
  LPS (PSG), Mean (SD): 31.8 (36.57) minutes
[1]; [5]
  SE (8-hour PSG), Mean (SD): 87.3 (9.37) %
  TST (8-hour PSG), Mean (SD): 419.1 (44.98) minutes
[1]; doxepin 6 mg, Night 29, p 0.0012 vs placebo
  8-hour WASO, Mean (SD): 41.2 (37.91) minutes
[1]; doxepin 6 mg, Night 29, p 0.0034 vs placebo
  SE - Hour 8 (PSG), Mean (SD): 85.8 (19.66) %
[1]; doxepin 6 mg, Night 29, p 0.9989 vs placebo
  LPS (PSG), Mean (SD): 24.7 (21.48) minutes
[2]; 3 mg and 6 mg, 2-day discontinuation period following abrupt discontinuation of 35 nights of treatment
  Rebound insomnia (mean change in mean WASO from baseline to the first night of discontinuation): no rebound insomnia
[2]; 3 mg group at night 36, as measured by mean change in WASO
  Largest percentage of patients experiencing rebound effects: 15%
[2]; Doxepin HCl 3 mg group
  WASO (rebound insomnia analysis), Median: 79.5 min
  WASO (rebound insomnia analysis), Mean (SD): 83.5 (41.35) minutes
  WASO, Change from Baseline to Visit 7, Night 36, Median: -22.0 min
  WASO, Change from Baseline to Visit 7, Night 37, Median: -20.8 min
[2]; [6]
  Rebound insomnia frequency: patients with LPS change from Baseline ≧20 minutes at Visit 7, count (%): 7 (10%)
  Rebound insomnia frequency: patients with TST change from Baseline ≦−30 minutes at Visit 7, count (%): 9 (13%)
  Rebound insomnia frequency: patients with WASO change from Baseline ≧35 minutes at Visit 7, count (%): 10 (15%)
[2]; [7]
  Rebound insomnia frequency: patients with LPS change from Baseline ≧20 minutes at Visit 7, count (%): 3 (4%)
  Rebound insomnia frequency: patients with TST change from Baseline ≦−30 minutes at Visit 7, count (%): 3 (4%)
  Rebound insomnia frequency: patients with WASO change from Baseline ≧35 minutes at Visit 7, count (%): 1 (1%)
[2]; Doxepin HCl 3 mg group, Visit 7, Night 36 (discontinuation)
  WASO, Median: 50.5 min
[2]; Doxepin HCl 3 mg group, Visit 7, Night 36 (discontinuation, single-blind placebo after 35 nights of treatment)
  WASO, Mean (SD): 65.8 (48.72) minutes
[2]; [8]
  WASO, Mean (SD): 58.4 (42.76) minutes
  WASO, Median: 48.8 min
[2]; Doxepin HCl 3 mg group, 95% CI (−30.28, −6.57)
  WASO, Change from Baseline to Visit 7, Night 36, Mean (SD): −18.4 (48.60) minutes
[2]; Doxepin HCl 3 mg group, 95% CI (−35.26, −14.11)
  WASO, Change from Baseline to Visit 7, Night 37, Mean (SD): −24.7 (43.02) minutes
[2]; Doxepin HCl 6 mg group
  WASO (rebound insomnia analysis), Median: 72.5 min
  WASO (rebound insomnia analysis), Mean (SD): 78.4 (40.37) minutes
  WASO, Change from Baseline to Visit 7, Night 36, Median: -16.5 min
  WASO, Change from Baseline to Visit 7, Night 37, Median: -20.0 min
[2]; [9]
  Rebound insomnia frequency: patients with LPS change from Baseline ≧20 minutes at Visit 7, count (%): 8 (12%)
  Rebound insomnia frequency: patients with TST change from Baseline ≦−30 minutes at Visit 7, count (%): 6 (9%)
  Rebound insomnia frequency: patients with WASO change from Baseline ≧35 minutes at Visit 7, count (%): 7 (10%)
[2]; [10]
  Rebound insomnia frequency: patients with LPS change from Baseline ≧20 minutes at Visit 7, count (%): 2 (3%)
  Rebound insomnia frequency: patients with TST change from Baseline ≦−30 minutes at Visit 7, count (%): 2 (3%)
  Rebound insomnia frequency: patients with WASO change from Baseline ≧35 minutes at Visit 7, count (%): 3 (4%)
[2]; Doxepin HCl 6 mg group, Visit 7, Night 36 (discontinuation)
  WASO, Median: 46.0 min
[2]; Doxepin HCl 6 mg group, Visit 7, Night 36 (discontinuation, single-blind placebo after 35 nights of treatment)
  WASO, Mean (SD): 55.9 (40.26) minutes
[2]; [11]
  WASO, Mean (SD): 56.0 (42.68) minutes
  WASO, Median: 49.0 min
[2]; Doxepin HCl 6 mg group, 95% CI (−34.99, −12.27)
  WASO, Change from Baseline to Visit 7, Night 36, Mean (SD): −23.6 (46.93) minutes
[2]; Doxepin HCl 6 mg group, 95% CI (−36.26, −12.38)
  WASO, Change from Baseline to Visit 7, Night 37, Mean (SD): −24.3 (47.41) minutes
